Results from ChEMBL document CHEMBL1201862, “PubChem BioAssay data set” (2004).
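96-well plates; 48 h exposure; 5 concentrations. Endpoints by linear interpolation between flanking doses. Not reached: highest tested concentration assigned. GI50: concentration for 50% inhibition of growth.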 Activity calls are given as the source filed them. Cut-off read from the data, not from the text of the source: active = GI50 up to about 1.1 µM and inactive = higher.

Experiments:
Test in all cases: NCI anticancer screen, dose series, 48 h
[1] = tested on: 786-0
[2] = tested on: A498
[3] = tested on: A549
[4] = tested on: ACHN
[5] = tested on: BT-549
[6] = tested on: CAKI-1
[7] = tested on: CCRF-CEM
[8] = tested on: COLO 205
[9] = tested on: DU-145
[10] = tested on: EKVX
[11] = tested on: HCC 2998
[12] = tested on: HCT-116
[13] = tested on: HCT-15
[14] = tested on: HL-60
[15] = tested on: HOP-62
[16] = tested on: HOP-92
[17] = tested on: HT-29
[18] = tested on: Hs-578T
[19] = tested on: IGROV-1
[20] = tested on: K562
[21] = tested on: KM12
[22] = tested on: LOX IMVI
[23] = tested on: M14
[24] = tested on: MCF7
[25] = tested on: MDA-MB-231
[26] = tested on: MDA-MB-435
[27] = tested on: MDA-N
[28] = tested on: MOLT-4
[29] = tested on: Malme-3M
[30] = tested on: NCI-H226
[31] = tested on: NCI-H23
[32] = tested on: NCI-H460
[33] = tested on: NCI-H522
[34] = tested on: NCI/ADR-RES
[35] = tested on: OVCAR-3
[36] = tested on: OVCAR-4
[37] = tested on: OVCAR-5
[38] = tested on: OVCAR-8
[39] = tested on: RPMI-8226
[40] = tested on: RXF 393
[41] = tested on: SF-268
[42] = tested on: SF-295
[43] = tested on: SF-539
[44] = tested on: SK-MEL-28
[45] = tested on: SK-MEL-2
[46] = tested on: SK-MEL-5
[47] = tested on: SK-OV-3
[48] = tested on: SN12C
[49] = tested on: SNB-19
[50] = tested on: SNB-75
[51] = tested on: SR
[52] = tested on: SW-620
[53] = tested on: T47D
[54] = tested on: TK-10
[55] = tested on: U-251
[56] = tested on: UACC-257
[57] = tested on: UACC-62
[58] = tested on: UO-31
[59] = tested on: PC-3

COC(=O)c1ccccc1C1CN=NC12Cc1c(C)cccc1C2=O (stereo not drawn)
GI50 [1]: > 100 µM (inactive)
GI50 [2]: > 100 µM (inactive)
GI50 [3]: 61.5 µM (inactive)
GI50 [4]: > 100 µM (inactive)
GI50 [5]: > 100 µM (inactive)
GI50 [6]: > 100 µM (inactive)
GI50 [7]: > 100 µM (inactive)
GI50 [8]: > 100 µM (inactive)
GI50 [9]: > 100 µM (inactive)
GI50 [10]: > 100 µM (inactive)
GI50 [11]: > 100 µM (inactive)
GI50 [12]: 69.2 µM (inactive)
GI50 [13]: > 100 µM
GI50 [14]: 87.3 µM (inactive)
GI50 [15]: > 100 µM (inactive)
GI50 [16]: 29.1 µM (inactive)
GI50 [17]: > 100 µM (inactive)
GI50 [18]: > 100 µM (inactive)
GI50 [19]: > 100 µM (inactive)
GI50 [20]: > 100 µM (inactive)
GI50 [21]: > 100 µM (inactive)
GI50 [22]: 45.1 µM (inactive)
GI50 [23]: > 100 µM (inactive)
GI50 [24]: > 100 µM (inactive)
GI50 [25]: > 100 µM (inactive)
GI50 [26]: > 100 µM (inactive)
GI50 [27]: > 100 µM (inactive)
GI50 [28]: 69.5 µM (inactive)
GI50 [29]: > 100 µM (inactive)
GI50 [30]: > 100 µM (inactive)
GI50 [31]: > 100 µM (inactive)
GI50 [32]: > 100 µM (inactive)
GI50 [33]: > 100 µM (inactive)
GI50 [34]: 60.8 µM (inactive)
GI50 [35]: > 100 µM (inactive)
GI50 [36]: > 100 µM (inactive)
GI50 [37]: 71.8 µM (inactive)
GI50 [38]: > 100 µM (inactive)
GI50 [39]: > 100 µM (inactive)
GI50 [40]: > 100 µM (inactive)
GI50 [41]: > 100 µM (inactive)
GI50 [42]: 79.4 µM (inactive)
GI50 [43]: > 100 µM (inactive)
GI50 [44]: > 100 µM (inactive)
GI50 [45]: 48.3 µM (inactive)
GI50 [46]: 90.2 µM (inactive)
GI50 [47]: > 100 µM (inactive)
GI50 [48]: > 100 µM (inactive)
GI50 [49]: > 100 µM (inactive)
GI50 [50]: 94.4 µM (inactive)
GI50 [51]: > 100 µM (inactive)
GI50 [52]: > 100 µM (inactive)
GI50 [53]: 52.7 µM (inactive)
GI50 [54]: > 100 µM (inactive)
GI50 [55]: 80.7 µM (inactive)
GI50 [56]: > 100 µM (inactive)
GI50 [57]: > 100 µM (inactive)
GI50 [58]: 73.1 µM (inactive)

O=C(O[C@@H](/C=C/c1ccccc1)P1(=O)N(Cc2ccccc2)[C@@H]2CCCC[C@H]2N1Cc1ccccc1)c1ccccc1
GI50 [1]: 3.89 µM (inactive)
GI50 [2]: 5.62 µM (inactive)
GI50 [3]: 3.07 µM (inactive)
GI50 [4]: 3.95 µM (inactive)
GI50 [5]: 4.91 µM (inactive)
GI50 [6]: 1.48 µM (inactive)
GI50 [7]: 2.31 µM (inactive)
GI50 [8]: 2 µM (inactive)
GI50 [10]: 3.98 µM (inactive)
GI50 [11]: 7.93 µM (inactive)
GI50 [12]: 2.61 µM (inactive)
GI50 [13]: 2.99 µM
GI50 [14]: 2.94 µM (inactive)
GI50 [15]: 6.79 µM (inactive)
GI50 [16]: 1.71 µM (inactive)
GI50 [17]: 3.44 µM (inactive)
GI50 [18]: 8.89 µM (inactive)
GI50 [19]: 2.79 µM (inactive)
GI50 [20]: 3.25 µM (inactive)
GI50 [21]: 2.83 µM (inactive)
GI50 [22]: 3.15 µM (inactive)
GI50 [23]: 3.66 µM (inactive)
GI50 [24]: 3.59 µM (inactive)
GI50 [25]: 2.96 µM (inactive)
GI50 [26]: 3.12 µM (inactive)
GI50 [27]: 3.33 µM (inactive)
GI50 [29]: 3.6 µM (inactive)
GI50 [30]: 2.58 µM (inactive)
GI50 [31]: 2.64 µM (inactive)
GI50 [32]: 3.53 µM (inactive)
GI50 [33]: 4.54 µM (inactive)
GI50 [34]: 3.66 µM (inactive)
GI50 [35]: 5.07 µM (inactive)
GI50 [36]: 1.88 µM (inactive)
GI50 [37]: 4.86 µM (inactive)
GI50 [38]: 3.63 µM (inactive)
GI50 [59]: 3.31 µM (inactive)
GI50 [39]: 2 µM (inactive)
GI50 [41]: 5.06 µM (inactive)
GI50 [42]: 3.55 µM (inactive)
GI50 [43]: 4.68 µM (inactive)
GI50 [44]: 6.92 µM (inactive)
GI50 [45]: 2.38 µM (inactive)
GI50 [46]: 1.99 µM (inactive)
GI50 [47]: 5.92 µM (inactive)
GI50 [48]: 3.18 µM (inactive)
GI50 [49]: 4.54 µM (inactive)
GI50 [51]: 2.68 µM (inactive)
GI50 [52]: 3.66 µM (inactive)
GI50 [53]: 0.0984 µM (active)
GI50 [54]: > 100 µM (inactive)
GI50 [55]: 3.21 µM (inactive)
GI50 [56]: 8.75 µM (inactive)
GI50 [57]: 3.8 µM (inactive)
GI50 [58]: 3.4 µM (inactive)
